Consider 38 compounds from ChEMBL document CHEMBL4145536, “Design, synthesis and biological evaluation of novel bouchardatine analogs as potential inhibitors of adipogenesis/lipogenesis in 3T3-L1 adipocytes” (Eur J Med Chem, 2018).

Calls of active or inactive are those of the source. No cut-off for these calls is given here.

Data set [1] relates to 3T3-L1. The data set can be described thus: Lipid lowering activity in mouse 3T3L1 cells assessed as decrease in triglyceride level at 10 uM for 6 days by oil red o-staining based assay relative to control. The format is functional. Also noted: scale not given: the % may be the effect or the level left.
For data set [2], the system named is HepG2. The data set can be described thus: Lipid lowering activity in human HepG2 cells assessed as decrease in triglyceride level at 10 uM for 6 days in presence of oleic acid by oil red o-staining based assay relative to control. Format: functional. On the set-up: scale not given: the % may be the effect or the level left.
Data set [3] concerns 3T3-L1. The data set can be described thus: Cytotoxicity against mouse 3T3L1 cells assessed as decrease in cell viability after 24 hrs by MTT assay. The format is cell-based. Conditions: 3T3-L1, 24 h.
The test system of data set [4] is HepG2. The data set can be described thus: Cytotoxicity against human HepG2 cells assessed as decrease in cell viability after 24 hrs by MTT assay. Format: cell-based. Conditions: HepG2, 24 h.
Data set [5] concerns 3T3-L1. As to the kind of experiment: Lipid lowering activity in mouse 3T3L1 cells assessed as decrease in triglyceride level at 10 uM for 6 days by oil red o-staining based microscopic assay. Format: functional, cell-based.
The next data set is filed under the species Mus musculus. The data set can be described thus: Induction of AMPKalpha phosphorylation at Thr172 residue in mouse 3T3L1 cells at 2 mM after 4 hrs by Western blot analysis. The format is cell-based.
The test system of data set [6] is 3T3-L1. The data set can be described thus: Lipid lowering activity in mouse 3T3L1 cells assessed as decrease in triglyceride level treated 2 days post confluent for 9 days by oil red o-staining based assay. Format: functional, cell-based.
The subject of data set [7] is 3T3-L1. As to the kind of experiment: Cytotoxicity against mouse 3T3L1 cells assessed as decrease in cell viability up to 10 uM measured up to 72 hrs by LDH release assay. The format is cell-based. Conditions: 3t3-l1, 72 h.

On to `O=c1[nH]c(-c2[nH]c3ccccc3c2Br)nc2ccccc12`, for which the values for the Activity with 3T3-L1 [1] and with HepG2 [2] were 34.6% and 40.4%, respectively. For the same compound, the IC50 with 3T3-L1 [3] and with HepG2 [4] was greater than 50 µM throughout. For the same compound, the result with 3T3-L1 [5] was Active.
Regarding `Fc1c(-c2nc(NCCN3CCCC3)c3ccccc3n2)[nH]c2ccccc12`, the figures for the Activity in the data set with 3T3-L1 [1] and in the data set with HepG2 [2] were 64.2% and 23.6%, respectively. Further, the IC50 in the data set with 3T3-L1 [3] came to 24.5 µM; in the data set with HepG2 [4], 7.3 µM.
Consider `O=c1[nH]c(C2=Nc3ccccc3C2(F)F)nc2ccccc12`, for which the figures for the Activity with 3T3-L1 [1] and in the data set with HepG2 [2] were 39.4% and 24.1%, respectively. In addition, the IC50 in the data set with 3T3-L1 [3] and in the data set on HepG2 [4] was greater than 50 µM in each case. Also, the result in the data set on 3T3-L1 [5] was Active.
As for `CN(C)CCNc1nc(-c2[nH]c3ccccc3c2Cl)nc2ccccc12`, the values for the Activity in the data set on 3T3-L1 [1] and in the data set on HepG2 [2] were 89.1% and 33%, respectively. The results for the IC50 with 3T3-L1 [3] and in the data set with HepG2 [4] were 14.8 µM and 2.7 µM, respectively.
For the compound `OCCCNc1nc(-c2[nH]c3ccccc3c2F)nc2ccccc12`, the Activity with 3T3-L1 [1] was determined as 44.4%; in the data set on HepG2 [2], 26.3%. Besides, the results for the IC50 in the data set with 3T3-L1 [3] and in the data set on HepG2 [4] were greater than 50 µM and 30 µM, respectively.
Regarding `Clc1nc(-c2[nH]c3ccccc3c2Br)nc2ccccc12`, the Activity in the data set with 3T3-L1 [1] was 58.9%; in the data set on HepG2 [2], 0.9%. In addition, the IC50 in the data set with 3T3-L1 [3] and with HepG2 [4] was greater than 50 µM in each case. In addition, the result in the data set on 3T3-L1 [5] was Active.
Take `Brc1c(-c2nc(NCCN3CCCC3)c3ccccc3n2)[nH]c2ccccc12`: the Activity is reported as 84.2% in the data set with 3T3-L1 [1] and 54.3% with HepG2 [2]. Besides, the IC50 with 3T3-L1 [3] was determined as 12.6 µM; in the data set on HepG2 [4] it was 4.3 µM.
On to `CCN(CC)CCNc1nc(-c2[nH]c3ccccc3c2Cl)nc2ccccc12`, for which the values for the Activity in the data set on 3T3-L1 [1] and with HepG2 [2] were 87.5% and 15.6%, respectively. The figures for the IC50 in the data set on 3T3-L1 [3] and in the data set on HepG2 [4] were 19.2 µM and 4.6 µM, respectively.
`O=c1[nH]c(-c2[nH]c3ccccc3c2Cl)nc2ccccc12`: the Activity with 3T3-L1 [1] is recorded as 35.4%; in the data set with HepG2 [2] it was 51.9%. Moreover, the half-inhibitory concentration (IC50) with 3T3-L1 [3] and in the data set with HepG2 [4] was greater than 50 µM each time. For the same compound, in the data set on 3T3-L1 [5], the result was Active.
Take `O=c1[nH]c(-c2cc3ccccc3[nH]2)nc2ccccc12`: the values for the Activity in the data set on 3T3-L1 [1] and in the data set on HepG2 [2] were 43.8% and 14.9%, respectively. For the same compound, the IC50 came to 43.8 µM with 3T3-L1 [3] and 14.9 µM with HepG2 [4].
Regarding `CC(C)CNc1nc(-c2[nH]c3ccccc3c2Cl)nc2ccccc12`, the Activity in the data set on 3T3-L1 [1] came to 45.7%; in the data set on HepG2 [2], 42.8%. Also, the IC50 was greater than 50 µM with 3T3-L1 [3] and 22.8 µM in the data set with HepG2 [4]. Moreover, in the data set on 3T3-L1 [5], the result was Active.
For the compound `OCCNc1nc(-c2[nH]c3ccccc3c2Cl)nc2ccccc12`, the Activity is listed as 38.3% in the data set with 3T3-L1 [1] and 53.1% in the data set on HepG2 [2]. For the same compound, the results for the IC50 with 3T3-L1 [3] and in the data set on HepG2 [4] were greater than 50 µM and 20.9 µM, respectively.
The matching figures for `Brc1c(-c2nc(NCCCN3CCCC3)c3ccccc3n2)[nH]c2ccccc12`: 81.6%, 53.1%, 9.6 µM and 3.1 µM.
The matching figures for `Clc1c(-c2nc(NCCN3CCOCC3)c3ccccc3n2)[nH]c2ccccc12`: 54.6%, 46.9%, 37.9 µM and 15.6 µM.
The matching figures for `Clc1c(-c2nc(NCCCN3CCCC3)c3ccccc3n2)[nH]c2ccccc12`: 53.8%, 51.4%, 20.1 µM and 4.7 µM.
`Clc1c(-c2nc(NCCN3CCCCC3)c3ccccc3n2)[nH]c2ccccc12`: the Activity with 3T3-L1 [1] is 70.3%; with HepG2 [2], 52%. In addition, the results for the IC50 in the data set on 3T3-L1 [3] and with HepG2 [4] were 41.6 µM and 18 µM, respectively. Also, the result with 3T3-L1 [5] was Active.
In the case of `CN(C)CCCNc1nc(-c2[nH]c3ccccc3c2F)nc2ccccc12`, the Activity in the data set with 3T3-L1 [1] was 45%; with HepG2 [2], 32.7%. In addition, the results for the IC50 with 3T3-L1 [3] and in the data set on HepG2 [4] were 22.2 µM and 6 µM, respectively.
On to `c1ccc2[nH]c(-c3nc(NCCN4CCCC4)c4ccccc4n3)cc2c1`, for which the Activity turned out to be 66.8% in the data set with 3T3-L1 [1] and 13.1% in the data set with HepG2 [2]. Besides, the results for the IC50 with 3T3-L1 [3] and in the data set on HepG2 [4] were 20.4 µM and 40.4 µM, respectively.
The like results for `CN1CCN(CCCNc2nc(-c3[nH]c4ccccc4c3Cl)nc3ccccc23)CC1` were, in that order, 83.4%, 41.2%, 14.4 µM and 2.7 µM.
The like results for `Clc1c(-c2nc(NCCCN3CCOCC3)c3ccccc3n2)[nH]c2ccccc12` were, in that order, 56.6%, 36.6%, 30.1 µM and 10.3 µM.
As for `CN(C)CCCNc1nc(-c2[nH]c3ccccc3c2Cl)nc2ccccc12`, the Activity in the data set on 3T3-L1 [1] is reported as 49.5%; in the data set with HepG2 [2] it was 35.8%. The concentration for half-maximal inhibition (IC50) with 3T3-L1 [3] came out at 18.1 µM; with HepG2 [4], 4.1 µM.
As for `Clc1nc(-c2[nH]c3ccccc3c2Cl)nc2ccccc12`, the Activity in the data set with 3T3-L1 [1] is 45.6%; in the data set with HepG2 [2], 37.7%. For the same compound, the IC50 with 3T3-L1 [3] and in the data set with HepG2 [4] was greater than 50 µM in each case. In the data set on 3T3-L1 [5], the outcome was Active.
Take `c1ccc2[nH]c(-c3nc(NCCCN4CCCC4)c4ccccc4n3)cc2c1`: the figures for the Activity with 3T3-L1 [1] and in the data set with HepG2 [2] were 42.7% and 14.2%, respectively. Moreover, the IC50 in the data set with 3T3-L1 [3] and in the data set with HepG2 [4] was greater than 50 µM each time.
For the compound `NC(=O)c1ncn([C@@H]2O[C@H](CO)[C@@H](O)[C@H]2O)c1N`, in the data set filed under Mus musculus, the outcome was Active.
Regarding `CN(C)CCCNc1nc(-c2cc3ccccc3[nH]2)nc2ccccc12`, the Activity in the data set on 3T3-L1 [1] was found to be 48.2%; in the data set with HepG2 [2] it was 5.8%. Moreover, the figures for the half-inhibitory concentration (IC50) in the data set on 3T3-L1 [3] and with HepG2 [4] were 30.3 µM and 44.2 µM, respectively.
The matching figures for `CN(C)CCNc1nc(-c2cc3ccccc3[nH]2)nc2ccccc12`: 42.3%, 0.6%, 12.9 µM and 25.3 µM.
In the case of `O=Cc1c(-c2nc(NCCN3CCCC3)c3ccccc3n2)[nH]c2ccccc12`, in the data set with 3T3-L1 [1], the Activity is on record as 94.9%.
With `CN(C)CCCNc1nc(-c2[nH]c3ccccc3c2Br)nc2ccccc12`, the Activity was found to be 59.2% in the data set with 3T3-L1 [1] and 28.3% in the data set with HepG2 [2]. Further, the IC50 in the data set with 3T3-L1 [3] was determined as 11.6 µM; with HepG2 [4], 4.3 µM. For the same compound, the outcome in the data set with 3T3-L1 [5] was Active.
Regarding `Brc1c(-c2nc(NCCN3CCCCC3)c3ccccc3n2)[nH]c2ccccc12`, the Activity with 3T3-L1 [1] came to 83.8%; with HepG2 [2], 62.1%. The values for the IC50 in the data set on 3T3-L1 [3] and in the data set with HepG2 [4] were 13.2 µM and 5.1 µM, respectively.
Take `CN(C)CCNc1nc(-c2[nH]c3ccccc3c2F)nc2ccccc12`: the figures for the Activity in the data set on 3T3-L1 [1] and with HepG2 [2] were 57.3% and 24.2%, respectively. In addition, the IC50 in the data set with 3T3-L1 [3] was determined as 21.7 µM; in the data set with HepG2 [4] it was 4.2 µM.
Consider `CCN(CC)CCNc1nc(-c2[nH]c3ccccc3c2Br)nc2ccccc12`, for which the values for the Activity in the data set on 3T3-L1 [1] and with HepG2 [2] were 86.5% and 50%, respectively. Besides, the IC50 was 15.4 µM in the data set with 3T3-L1 [3] and 6.1 µM in the data set on HepG2 [4].
Regarding `Fc1c(-c2nc(Cl)c3ccccc3n2)[nH]c2ccccc12`, the Activity in the data set on 3T3-L1 [1] was 71.8%; in the data set on HepG2 [2], 40.7%; with 3T3-L1 [6] it was “Dose-dependent effect”; with 3T3-L1 [7], “Non-Toxic”. The IC50 with 3T3-L1 [3] and with HepG2 [4] was greater than 50 µM each time. Moreover, in the data set on 3T3-L1 [5], the result was Active. In the data set with 3T3-L1 [6], the EC50 came out at 0.92 µM.
Take `CN1CCN(CCCNc2nc(-c3[nH]c4ccccc4c3F)nc3ccccc23)CC1`: the Activity amounted to 42.5% in the data set on 3T3-L1 [1] and 22.5% in the data set on HepG2 [2]. Further, the IC50 was 19.8 µM with 3T3-L1 [3] and 5.2 µM with HepG2 [4].
Consider `CN(C)CCCNc1nc(-c2[nH]c3ccccc3c2C=O)nc2ccccc12`, for which the Activity is 82.1% in the data set with 3T3-L1 [1] and 52.1% in the data set on HepG2 [2]. Further, the values for the IC50 with 3T3-L1 [3] and in the data set with HepG2 [4] were 34.4 µM and 27.4 µM, respectively. The result in the data set on 3T3-L1 [5] was Active.
The like results for `CC(C)CCNc1nc(-c2[nH]c3ccccc3c2F)nc2ccccc12` were, in that order, 37.3%, 38.7%, greater than 50 µM, 28.7 µM and “Active”.
As for `Clc1c(-c2nc(NCCN3CCCC3)c3ccccc3n2)[nH]c2ccccc12`, the Activity came out at 60.5% with 3T3-L1 [1] and 42.5% in the data set with HepG2 [2]. Moreover, the IC50 in the data set on 3T3-L1 [3] was 24.5 µM; in the data set on HepG2 [4], 2.5 µM.
In the case of `CN(C)CCNc1nc(-c2[nH]c3ccccc3c2Br)nc2ccccc12`, the Activity in the data set on 3T3-L1 [1] was 56.4%; in the data set with HepG2 [2], 46.1%. Also, the IC50 was found to be 11.4 µM in the data set on 3T3-L1 [3] and 4.1 µM with HepG2 [4]. The result with 3T3-L1 [5] was Active.
Consider `Brc1c(-c2nc(NCCCN3CCCCC3)c3ccccc3n2)[nH]c2ccccc12`, for which the Activity in the data set with 3T3-L1 [1] is given as 84.9%; in the data set on HepG2 [2], 62.3%. Further, the IC50 in the data set with 3T3-L1 [3] turned out to be 14.9 µM; with HepG2 [4], 6 µM.
